Reference: US12290513B2, “Therapeutic methods and compositions for treating movement disorders” (Vima Therapeutics, Inc., priority 2023, dated 2025)
Where two headings read alike, the source gives them in different places.

Tests used:
[1] = system: haloperidol-induced catalepsy; test: Haloperidol-induced catalepsy (bar test); assay type: in vivo, Sprague Dawley rats; conditions: for time spent holding bar, haloperidol-induced catalepsy: rats, haloperidol 1 mg/kg sc, Rac-THP 10, 20, 30 mg/kg, R-THP or S-THP 5, 10, 15 mg/kg ip
Description: Animals: Adult male Sprague Dawley rats (230-235 g) from Envigo were used in this study. Upon receipt, rats were group housed in ventilated cages and acclimated for one week prior to testing.
The front paws of a rat were placed then on a horizontal metal bar raised 6″ above a Plexiglas platform. Each rat underwent 3 trials of 60 seconds each. The test ended when the animal's front paws return to the platform or after 60 seconds. Rats were tested at 30 and 60 minutes after treatment.
Data were analyzed by one-way analysis of variance (ANOVA) followed by Tukey's post-hoc comparisons, where appropriate. Data are represented as mean and standard error to the mean (SEM).

[2] = Whole blood stability, human
Description: Procedures for blood Stability. • A. 398 μL of blood from each species was added to an incubation plate, which was pre-warmed at 37C for 15 minutes. • B. After the pre-incubation, 2 μL of working solution (test compounds or control compounds) was spiked to 398 μL of blood to reach a final concentration of 1 μM for test compounds and 5 μM for control compounds. The final concentration of organic solvents is 0.5%. The assays were performed in duplicate. • C. The reaction samples were incubated at 37C. • D. Aliquots of 50 μL were taken from the reaction samples at 0, 15, 30, 60 and 120 minutes. The reaction was stopped by the addition of 50 μL ultrapure water and 400 μL cold acetonitrile. • E. All samples were vortexed for 10 minutes, followed by centrifugation at 3,220 g for 40 minutes to precipitate proteins. 100 μL of the supernatant was then transferred to a new plate. The supernatant was diluted with ultrapure water as needed for detection by LC-MS/MS. Sample Analysis
Samples were analyzed by LC-MS/MS to measure the concentration of the test compounds.
(§1) All calculations were carried out using Microsoft Excel and according to standard analysis methods that are known in the art.

[3] = Hepatocyte stability, human
Description: • 1. 10 mM stock solutions of test compounds and positive control compound were prepared in appropriate solvent (DMSO). • 2. In separate conical tubes, 10 mM test compound and positive controls were diluted to 100 μM by combining 198 μL of 50% acetonitrile/50% water and 2 μL of 10 mM stock. Preparation of Hepatocytes • 1. Incubation medium (William's E Medium supplemented with GlutaMAX) and hepatocyte thawing medium were placed in a 37C water bath and warmed for at least 15 minutes prior to use. • 2. A vial of cryopreserved hepatocytes was thawed by placing the vial in a 37C water bath and gently shaken for 2 minutes. After thawing was completed, the vial was cleaned with 70% ethanol and transferred to a biosafety cabinet. • 3. Using wide-bore pipette tips, hepatocytes were transferred into a 50 mL conical tube containing thawing medium. The 50 mL conical tube was placed into a centrifuge and spun at 100 g for 10 minutes. […] Using AO/PI Staining, cells were counted to determine the viable cell density. Cells were diluted with incubation medium to a working cell density of 0.5×10^6 viable cells/mL. Procedure for Stability Determination • 1. 198 μL of hepatocytes were pipetted into each well of a 96-well non-coated plate. The plate was placed in the incubator to allow the hepatocytes to warm for 10 minutes. • 2. 2 μL of the 100 μM test compound or positive control was pipetted into respective wells of the 96-well non-coated plate to start the reaction. The plate was returned to the incubator for the designed time points. • 3. The contents of the wells were removed in 25 μL aliquots at time points of 0.5, 15, 30, 60, 90 and 120 minutes. The aliquots were then mixed with 6 volumes (150 μL) of acetonitrile containing an internal standard, IS (100 nM alprazolam, 200 nM caffeine and 100 nM tolbutamide), to terminate the reaction. Samples were vortexed for 5 minutes and centrifuged for 45 minutes at 3,220 g. Aliquots of 100 μL of supernatant were diluted with 100 μL ultra-pure water, and the mixture was used for LC/MS/MS analysis. All incubations were performed in duplicate. Data Analysis
as §1

CYP1A2 = molecular target: T1, CYP1A2 (Homo sapiens, UniProt P05177); test: Incubation with recombinant CYP1A2
T1 sequence (P05177 1-516): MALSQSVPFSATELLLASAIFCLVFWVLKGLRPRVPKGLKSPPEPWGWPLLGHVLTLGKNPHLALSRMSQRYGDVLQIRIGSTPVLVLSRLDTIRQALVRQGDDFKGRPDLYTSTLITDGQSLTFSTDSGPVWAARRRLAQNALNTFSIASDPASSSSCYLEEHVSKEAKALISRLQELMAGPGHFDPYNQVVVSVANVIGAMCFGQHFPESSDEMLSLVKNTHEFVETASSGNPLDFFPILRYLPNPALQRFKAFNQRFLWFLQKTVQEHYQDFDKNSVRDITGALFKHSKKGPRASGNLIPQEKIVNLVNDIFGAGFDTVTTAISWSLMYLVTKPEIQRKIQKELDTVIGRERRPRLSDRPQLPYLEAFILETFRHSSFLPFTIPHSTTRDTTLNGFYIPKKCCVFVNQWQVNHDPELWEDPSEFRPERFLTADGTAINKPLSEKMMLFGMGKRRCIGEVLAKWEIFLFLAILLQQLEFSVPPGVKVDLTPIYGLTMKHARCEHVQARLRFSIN

in vitro = conditions: mouse, liver microsomes
[4] = molecular target: M2 (h) (antagonist radioligand) (Homo sapiens, UniProt P08172); conditions: at the tested concentration; negative values set to zero
M2 (h) (antagonist radioligand), sequence (P08172 whole entry): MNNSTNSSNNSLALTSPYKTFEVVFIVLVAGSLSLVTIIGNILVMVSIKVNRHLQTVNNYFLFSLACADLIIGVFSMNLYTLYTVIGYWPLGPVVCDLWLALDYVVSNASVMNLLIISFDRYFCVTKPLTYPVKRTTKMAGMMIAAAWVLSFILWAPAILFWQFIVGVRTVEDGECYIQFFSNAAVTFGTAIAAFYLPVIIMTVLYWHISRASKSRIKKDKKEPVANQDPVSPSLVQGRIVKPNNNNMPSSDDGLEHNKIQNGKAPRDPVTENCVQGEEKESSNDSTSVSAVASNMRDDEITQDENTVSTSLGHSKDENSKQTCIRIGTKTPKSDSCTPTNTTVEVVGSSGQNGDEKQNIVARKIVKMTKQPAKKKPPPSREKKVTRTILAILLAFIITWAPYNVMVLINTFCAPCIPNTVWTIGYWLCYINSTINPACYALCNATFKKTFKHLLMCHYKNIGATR

CYP3A5 = CYP3A5 (Homo sapiens, UniProt P20815); test: Incubation with recombinant CYP3A5
CYP3A5, sequence (P20815 whole entry): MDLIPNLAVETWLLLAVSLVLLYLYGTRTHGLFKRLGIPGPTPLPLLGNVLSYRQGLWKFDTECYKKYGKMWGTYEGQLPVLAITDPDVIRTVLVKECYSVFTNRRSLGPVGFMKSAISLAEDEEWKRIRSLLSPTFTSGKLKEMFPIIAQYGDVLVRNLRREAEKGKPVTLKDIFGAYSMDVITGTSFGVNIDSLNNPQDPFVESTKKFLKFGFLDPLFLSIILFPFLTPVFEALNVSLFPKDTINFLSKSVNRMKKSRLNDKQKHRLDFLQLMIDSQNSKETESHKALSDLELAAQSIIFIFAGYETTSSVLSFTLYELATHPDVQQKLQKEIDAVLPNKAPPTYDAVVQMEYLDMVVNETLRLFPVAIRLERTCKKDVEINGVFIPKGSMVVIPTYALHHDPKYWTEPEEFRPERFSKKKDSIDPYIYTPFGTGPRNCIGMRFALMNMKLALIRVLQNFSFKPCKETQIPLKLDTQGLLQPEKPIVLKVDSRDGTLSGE

[5] = Description: The resulting metabolites were analyzed by liquid chromatography-mass spectrometry, and metabolite peaks were detected and measured.
[6] = molecular target: D2S (h) (agonist radioligand) (Homo sapiens, UniProt P14416); conditions: at the tested concentration; negative values set to zero
D2S (h) (agonist radioligand), sequence (P14416 1-414 isoform P14416-2): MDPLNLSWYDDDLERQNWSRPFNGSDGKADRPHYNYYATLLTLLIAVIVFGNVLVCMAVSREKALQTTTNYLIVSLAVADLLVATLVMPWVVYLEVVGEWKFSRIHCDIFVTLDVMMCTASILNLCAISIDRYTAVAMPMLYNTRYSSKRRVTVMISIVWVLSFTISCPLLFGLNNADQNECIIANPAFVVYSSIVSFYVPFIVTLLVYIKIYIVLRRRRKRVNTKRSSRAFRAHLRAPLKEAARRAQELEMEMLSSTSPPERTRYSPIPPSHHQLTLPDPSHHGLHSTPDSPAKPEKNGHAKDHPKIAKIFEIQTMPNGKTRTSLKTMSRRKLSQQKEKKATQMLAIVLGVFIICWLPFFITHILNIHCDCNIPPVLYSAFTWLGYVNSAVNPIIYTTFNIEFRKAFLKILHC

SMILES	time spent holding bar, haloperidol-induced catalepsy ([1]; 30 minutes after injection)	time spent holding bar, haloperidol-induced catalepsy ([1]; 60 minutes after injection)	Remaining Percentages (%) 0 min ([2]; human whole blood, 37C)	CLint (CYP1A2)	Substrates of CYP1A2 (CYP1A2)	CLint scaled (in vitro)	half-life at 1 μM (in vitro)	microsomal CLint at 1 μM (in vitro)	signal, M2 (h) (antagonist radioligand) [4]	Substrates of CYP3A5 (CYP3A5)	signal, D2S (h) (agonist radioligand) [6]	further results
O[C@@](CCN1CCCCC1)(c1ccccc1)C1CCCCC1 [(R)-THP, (R)-trihexyphenidyl]	significantly attenuated haloperidol-induced catalepsy	significantly attenuated haloperidol-induced catalepsy	100.00%	0.00 µL/min/pmol	not metabolized	2030 mL/min/kg	2.82 min	492 µL/min/mg	98.95%	Rac, R and S	0.23%	Efficacy of R-THP versus Rac-THP over a dosage range ([1]; catalepsy control, FIG. 6): half a dose of R-THP controls catalepsy at least as effectively as a full dose of Rac-THP; t1/2 ([2]; human whole blood, 37C): ∞; CLint scaled at 1 μM ([3]; cryopreserved hepatocytes): 55.7 mL/min/kg; half-life at 1 μM ([3]; cryopreserved hepatocytes): 63.3 min; hepatocyte CLint at 1 μM ([3]; cryopreserved hepatocytes): 21.9 µL/min/1e6 cells; Substrates of CYP1A2 (CYP1A2; listed as R): no R; metabolites detected [5]: no (R)-THP metabolites were present at a significant level above parent molecule
C[C@@H](C[N+](C)(C)C)OC(N)=O.[Cl-] [(S)-BTC, (S)-bethanechol]	–	–	100.00%	–	–	–	–	–	–	–	–	t1/2 ([2]; human, blood): ∞; Predicted Hepatic CLH ([3]; hepatocytes): 0 mL/min/kg; in vitro t1/2 ([3]; hepatocytes): ∞
O[C@](CCN1CCCCC1)(c1ccccc1)C1CCCCC1 [(S)-THP, (S)-trihexyphenidyl]	did not significantly differ from those of haloperidol-treated rats	no significant differences	–	0.20 µL/min/pmol	is metabolized	1030 mL/min/kg	5.56 min	249 µL/min/mg	77.76%	Rac, R and S	35.79%	half-life (CYP1A2; human): 34.6 min; Substrates of CYP1A2 (CYP1A2; listed as S): S and Rac; half-life (CYP3A5; human): 48.7 min; metabolites detected ([5]; human): two metabolites 18 and 19 were detected at substantial levels
